Data reported in patent US8399705B2, “Alkali metal salt of glutamic acid N,N-diacetic acid, a process to prepare such salt, and the use thereof” (Akzo Nobel N.V., priority 2007, dated 2013).

Experiment: Viscosity by Brookfield DV-II viscometer
Assay type: physicochemical
Conditions: 50 wt % product, spindle 34, 10 to 40° C.; compared to Na4 GLDA; data in FIG. 1
Method: After addition of the KOH (45% sol) and the NaOH (50% sol) solution the products were subjected to evaporation to isolate an alkalimetal salt of glutamic acid-N,N-diacetic acid product having a concentration of 50 wt %.
The viscosity of the alkalimetal salt of glutamic acid-N,N-diacetic acid products prepared in Examples 1a-e was determined using a Brookfield DV-II viscometer with a spindle 34 at a temperature of 10 to 40° C.

SMILES | viscosity
O=C([O-])CC[C@@H](C(=O)[O-])N(CC(=O)[O-])CC(=O)[O-].[K+].[K+].[Na+].[Na+] [Na2K2 GLDA] | significantly lower viscosity
O=C(O)CC[C@@H](C(=O)O)N(CC(=O)O)CC(=O)O.[K].[Na].[Na].[Na] [Na3K GLDA, monopotassium trisodium glutamic acid-N,N-diacetic acid] | significantly lower viscosity
